Test system: skin of test persons
Test: Cooling effect on the skin as perceived by test persons (panel test)
Assay type: in vivo
Details: in each formulation the proportion of 1,2-pentanediol replaced with 1,2-hexanediol at a ratio of 5:3
From the text: In case of doubt, the perceptibility of the cooling effect is to be determined by means of a panel test wherein the corresponding mixture is applied onto the skin of at least 10 test persons. If in the course of this, preferably in combination with a blind test, 90% of the test persons confirm a cooling effect, then this will preferably correspond to the criteria for the presence of a corresponding effect. Topical applications in terms of the present text are applications where the corresponding active substance or the combination of active substances is brought into contact with the skin or with a mucous membrane. It is especially preferred that the evaluation of a cooling effect and its enhancement is made analog to the application example presented below. […] Provided the corresponding formulations also contained trans-4-tert. butylcyclohexanol, the cooling effect was even further enhanced compared to formulations without this compound.

With `CCCCC(O)CO` (stereo not shown) [1,2-hexanediol] the “cooling effect enhancement after replacement of 1,2-pentanediol” value was “comparable effects are achieved”.

Source: patent publication US11491091B2, “Cooling product” (SYMRISE AG, priority 2010, dated 2022)
